Drawing on US8642794B1, “Biosurfactant compounds produced by Aureobasidium pullulans” (Gyeongbuk Institute for Marine Bio-industry, priority 2012, dated 2014), this text covers surface tension for 2 compounds.

The data set is described as follows: Surface tension measurement with a tensiometer (Sigma 700), aqueous solution dropped onto a hydrophobic film. To be noted: at 1.0 mg/liter; water as control. In kind it is physicochemical. The protocol:
The compounds L3-E3 and L3-E6 isolated in Examples 2 and 4, respectively, were dropped onto the surface of a hydrophobic film, and their surface tension was measured by using a tensiometer (Sigma 700 Tensiometer, KSV Instruments Ltd., Finland). Here, water was used as a control, and the change in surface tension was measured by using a microbial culture, L3-E3 and L3-E6.

As to `CCCCCC(O)CC(O)CC(=O)OC(CCCCC)CC(O)CC(=O)OC` (centres unmarked) [L3-E3], the surface tension is listed as 29.5 dyne/cm.
The same measure for `CCCCCC(O)CC(O)CC(=O)OC(CCCCC)CCCC(=O)OC` (centres unmarked) [L3-E6]: 36.4 dyne/cm.
